US11497713B2, “Combination taxoid nanoemulsion with immunotherapy in cancer” (TargaGenix, Inc., priority 2017, dated 2022)

How the values were obtained:
[1] = tested on: human CFPAC-1 pancreatic tumor xenograft; assay: Human CFPAC-1 pancreatic tumor xenograft efficacy (FIG. 2); type: in vivo, mice; details: for efficacy as compared to vehicles: CFPAC-1 xenograft
[2] = tested on: highly drug resistant tumor xenografts; assay: Highly drug resistant tumor xenografts in mice; details: mouse, in vivo
PDAC = details: cited from earlier work
Panc02 cells = assay: Cell viability (MTT assay) in Panc02 cells; type: cell-based, murine; details: Mus musculus, 96 hours of drug exposure
Description: The murine pancreatic cancer cell line Panc02, which is syngeneic to C57Bl/6 mice was a kind gift from Professor Michael A. Hollingsworth, UNMC, Omaha, Nebr. Panc02 cells were grown in 75 cm^2 cell culture flasks and maintained in DMEM medium supplemented with 10% fetal bovine serum (FBS), L-glutamine and penicillin (100 U/ml)/streptomycin (100 μg/ml) (both from Gibco Life Technologies, Carlsbad, Calif., USA). Cells were incubated at 37° C. in a humidified atmosphere containing 5% CO2.
To see cytotoxic effect of different drugs and nanoemulsion formulation, 5000 cells were seeded in each well of the 96-well plate for overnight at 37° C. in a humidified atmosphere containing 5% CO2. Various drugs (Paclitaxel, Abraxane, Gemcitabine and solution and nanoemulsion of DHA-SBT-1214) were diluted at concentrations ranging from 0 nM, 0.01 nM, 0.1 nM, 1 nM, 10 nM, 100 nM, 1000 nM to 10000 nM and Panc02 cells treated with these concentrations for 96 hours. After incubation, cells were treated with 3-(4,5-dimethylthiazol-2-yl)-2,5-diphenyltetrazolium bromide ([…]). MU crystals were dissolved with DMSO and plates were read at 570 nm absorbance using a BioTek Synergy HTX Multi-Mode Microplate Reader.
Cells were seeded at 0.5×10^6 cells/well in 6-well plates for overnight at 37 C in a humidified atmosphere containing 5% CO2. […] The percentage maximal response is shown as a function of anti-cancer agents when administered to Panc02 cells. The cell viability was measured by the MTT assay after 96 hours of incubation at 37° C. Data represent mean±standard deviation (n=3). Significant differences are indicated as follows: *p<0.05, and **p<0.01. The expression level of PD-L1 was determined using flow cytometry as follows. […] The cells were washed once with 3% BSA/PBS and analyzed by flow cytometer on a FACSCalibur flow cytometer and CellQuest™ Pro version 6.0 software (both from Becton-Dickinson and Co.). […]

[3] = tested on: human PANC-1 pancreatic tumor xenograft; assay: Human PANC-1 pancreatic tumor xenograft, schedule comparison (FIG. 3); type: in vivo, RPCI SCID mice
Excerpt: In FIG. 3, this experiment compared a q7d×3 with a q3d×3 schedule for paclitaxel and DHA-SBT-1214 using a human PANC-1 pancreatic tumor xenograft in RPCI SCID mice. […] Paclitaxel was only weakly effective, showing tumor growth delays of 18 days with q7d×3 schedule and 13 days with q3d×3 schedule and no CRs.

[4] = tested on: patient-derived PPT2 prostate cancer stem cell xenograft; assay: Patient-derived prostate cancer stem cell (PPT2) xenograft model; type: in vivo, mice; details: patient-derived prostate CSC xenograft
[5] = tested on: PD-L1 surface expression in Panc02 cells; assay: PD-L1 surface protein expression by flow cytometry; type: cell-based, murine; details: IC50 concentration, 48 hours
Description: Cells were seeded at 0.5×10^6 cells/well in 6-well plates for overnight at 37 C in a humidified atmosphere containing 5% CO2. […] The percentage maximal response is shown as a function of anti-cancer agents when administered to Panc02 cells. The cell viability was measured by the MTT assay after 96 hours of incubation at 37° C. Data represent mean±standard deviation (n=3). Significant differences are indicated as follows: *p<0.05, and **p<0.01. The expression level of PD-L1 was determined using flow cytometry as follows. Briefly, cells harvested from in vitro cultures were washed twice with 3% BSA/PBS and then incubated with rat anti-PD-L1 or isotype control antibodies ([…], BioXcell, West Lebanon, N.H., USA) for 30 minutes at 4 C, then washed three times and incubated with anti-rat AlexaFluor 488 conjugated Antibody. The cells were washed once with 3% BSA/PBS and analyzed by flow cytometer on a FACSCalibur flow cytometer and CellQuest™ Pro version 6.0 software (both from Becton-Dickinson and Co.).
Panc02 cells were treated with gemcitabine, Abraxane™, paclitaxel and DHA-SBT-1214 both in solution and nanoemulsion for 48 hours to determine whether they can induce PD-L1 protein expression. PD-L1 expression levels on tumor cells were determined by flow cytometry and is expressed as the A mean fluorescence intensity (ΔMFI; MFI using anti-PD-L1 subtracted from the isotype control). […] PD-L1 expression was analyzed using flow cytometry and is presented as ΔMFI (MFI using anti-PD-L1 subtracted from the isotype control). Data represent the mean±standard deviation of at least 3 independent experiments; *p<0.05, **p<0.01, ***p<0.001. As reported previously, PD-L1 level enhanced in pancreatic tumor tissues compared to in vitro growing cells as shown in FIG. 8.

CC/C=C\C/C=C\C/C=C\C/C=C\C/C=C\C/C=C/CCC(=O)O[C@@H](C(=O)O[C@H]1C[C@@]2(O)[C@@H](OC(=O)c3ccccc3)C3[C@](C)(C(=O)[C@H](OC(C)=O)C(=C1C)C2(C)C)[C@@H](O)C[C@H]1OC[C@@]31OC(C)=O)[C@@H](NC(=O)c1ccccc1)c1ccccc1 (stereo partly shown) [DHA-paclitaxel]
efficacy as compared to vehicles [1]: only minor tumor growth delay
efficacy [2]: do not show meaningful activity

FOLFIRINOX
median survival (PDAC; Phase III clinical trial of FOLFIRINOX): 11.1 months

CC(=O)O[C@@]12CO[C@@H]1C[C@H](O)[C@@]1(C)C(=O)[C@H](OC(=O)C3CC3)C3=C(C)[C@@H](OC(=O)[C@H](O)[C@H](C=C(C)C)NC(=O)OC(C)(C)C)C[C@@](O)([C@@H](OC(=O)c4ccccc4)[C@H]21)C3(C)C [SBT-1214]
weight loss ([1]; 120 mg/kg total dose, until day 20): < 4%

O=c1[nH]cc(F)c(=O)[nH]1 [5-FU, 5-flurouracil]
median overall survival (PDAC; randomized Phase III trial, gemcitabine versus 5-FU): 4.41 months

CC(=O)O[C@H]1C(=O)[C@@]2(C)[C@H]([C@H](OC(=O)c3ccccc3)[C@]3(O)C[C@H](OC(=O)[C@H](O)[C@@H](NC(=O)c4ccccc4)c4ccccc4)C(C)=C1C3(C)C)[C@]1(OC(C)=O)CO[C@@H]1C[C@@H]2O [paclitaxel, reference compound]
IC50 (Panc02 cells): 443 nM
efficacy as compared to vehicles [1]: only minor tumor growth delay
complete responses (CRs) ([3]; PANC-1 xenograft): no CRs
tumor growth delay ([3]; q3d×3 schedule): 13 days
tumor growth delay ([3]; q7d×3 schedule): 18 days
efficacy (tumor growth, survival) [4]: completely ineffective
PD-L1 surface expression (ΔMFI) [5]: upregulated
efficacy [2]: do not show meaningful activity
